# Results: patent US20240335421A1, “ANETHOLE TRITHIONE FOR THE TREATMENT OF VASCULITIDES” (FRÉDÉRIC MARIN, priority 2021, published 2024)
# Experiments:
# [1] = test system: TNF-α production in LPS-activated macrophages; assay: TNF-α production by LPS-activated human macrophages (ELISA); assay type: cell-based; conditions: ATT 10 μM, LPS 1 μg/mL, 48 hours, FIG. 1A
# Method: (§1) CD14^+ human macrophages isolated from healthy donors were cultured with LPS (1 μg/mL) and ATT (10 μM) for 48 hours. At the end of the culture, the supernatants were collected and cytokine production was evaluated.
# (§2) Production of TNF-α was measured by ELISA. Production of TNF-α and IL-10 were measured using a multiplex detection technique.
# [2] = test system: TNF-α production by LPS-activated human macrophages; assay: TNF-α production by LPS-activated human macrophages (multiplex detection); assay type: cell-based; conditions: ATT 10 μM, LPS 1 μg/mL, 48 hours, multiplex assay, FIG. 1B
# Method: as §1, §2
# [3] = test system: IL-10 production by LPS-activated human macrophages; assay: IL-10 production by LPS-activated human macrophages (multiplex detection); assay type: cell-based; conditions: ATT 10 μM, LPS 1 μg/mL, 48 hours, multiplex assay, FIG. 1C
# Method: as §1, §2
# pulmonary arterial rings [4] = assay: 5-HT contractile reactivity of pulmonary arterial rings with endothelium dysfunction (organ bath); design: species or system Wistar rats; conditions: ATT 10 μM, 30 minutes preincubation
# Method: (§3) Intrapulmonary arteries of the first order (IPA1) of Wistar rats (male, 300 g) were divided into short tubular segments with an external diameter of ≈1.5-2 mm and used for isometric contraction measurement.
# (§4) Arterial rings were mounted in isolated organ bath systems (EMKA Technologies), containing Krebs solution (118 mM NaCl, 4.7 mM KCl, 1.2 mM MgSO4, […], 1.2 mM KH2PO4, 2.5 mM CaCl2), and 11 mM D-glucose, pH 7.4) at 37° C. and bubbled continuously with […].
# (§5) Arterial rings were stretched to a basal tension of 0.8 to 1.0 g according to their diameter. Tissues were allowed to equilibrate for 1 hour in Krebs solution and washed out every 15 minutes. A high KCl solution (80 mM) was applied in order to obtain a reference contraction used to normalize subsequent contractile responses.
# (§6) At the end of the experiment, endothelial function was tested on each ring by examining the relaxation induced by carbamylcholine, a potent vascular relaxing agent (100 μM; Sigma) on 1 μM or 30 nM Phe-induced pre-constricted pulmonary arterial rings. Passive and active mechanical properties were assessed using transducer systems, coupled to IOX2 software (v2.10.8, EMKA technologies, Paris, France) in order to facilitate data acquisition and analysis. Data were then analyzed using two-way ANOVA with Bonferroni post-tests (Prism 5 v.5.01).
# Contractile responses were tested by constructing a cumulative concentration-response curve (CCRC) to 5-hydroxytryptamine [5-HT] (10 nM to 100 μM; Sigma). When indicated, tissues were preincubated during 30 minutes with ATT (10 μM), and then CCRC to 5-HT was performed in the presence or absence of the drug.
# Evaluation of the role of endothelium on ATT effect was assessed using N^ω-nitro-L-arginine methyl ester [L-NAME] (100 μM, 30 minutes preincubation; Sigma) to inhibit nitric oxide-dependent relaxation, or 3-[(3-cholamidopropyl) dimethylammonio]-1-propanesulfonate [CHAPS] (0.3% in water, perfusion before mounting; Sigma) to physically damage the endothelium.
# pulmonary arterial rings [5] = assay: Relaxation of phenylephrine pre-constricted pulmonary arterial rings (organ bath); design: species or system Wistar rats
# Method: as §3, §4, §5
# Relaxation was assessed by injecting ATT (10 μM) on phenylephrine [Phe] (30 nM; Sigma) pre-constricted pulmonary arterial rings when contraction reached its steady-state.
# as §6, with “The role” for “At the end”, “endothelium on ATT relaxant effect was assessed as aforementioned with L-NAME pre-incubation or CHAPS perfusion. Endothelial” for “the experiment, endothelial”, “100 μM carbamylcholine (Sigma)” for “carbamylcholine, a potent vascular relaxing agent (100 μM; Sigma)”
# [6] = test system: pulmonary arterial rings from rats with PH; assay: Chronic endothelium dysfunction by hypobaric hypoxia, in vivo minipump treatment, ex vivo 5-HT reactivity; conditions: 3 weeks hypobaric hypoxia, ATT 0.7 mg/mL by abdominal minipump, no ATT in the organ bath, FIG. 4
# Method: In order to investigate the protective effects of ATT on chronic endothelium damage, rats were housed during 3 weeks in hypobaric hypoxia chambers (50 kPa or 10% O2).
# Continuous treatment was induced through a minipump placed in the abdominal cavity to deliver ATT (0.7 mg/mL) or its placebo (sulfobutylether beta-cyclodextrin) during the whole hypoxia.
# After euthanasia of the animal, pulmonary arterial rings were placed in an organ bath and the reactivity of the vessel was investigated by using cumulative concentration-response curve with 5-HT (10 nM to 100 μM). This ex vivo part of the study was conducted without any addition of ATT in the organ bath, meaning that the effect was exclusively related to the chronic in vivo treatment through the minipump.
# [7] = test system: Adult human primary ventricular cardiomyocytes; assay: Human primary cardiomyocyte contractility assay after exposure to Kawasaki patient serum; assay type: cell-based; conditions: 12 hours exposure to KD serum + ATT 1 μM
# Method: Adult human primary ventricular cardiomyocytes were isolated from two healthy donors by AnaBios (San Diego, USA), using their CardioPRIME™ proprietary protocol.
# These isolated cardiomyocytes were exposed for 12 hours to serum obtained from Kawasaki patients in acute crisis (between 2-6 days), supplemented or not with 1 μM of ATT. In parallel, cardiomyocytes were exposed to serum from Wegener's disease patients or from convalescent Kawasaki patients, under the same conditions.
# The CardioPRIME™ protocol, run on a MultiCell platform by IonOptix, allows to measure several parameters. Upon electrical field stimulation to elicit contractions (tracked by the shape change in individual cardiomyocytes under optical bright field microscopy), the contractility transients could be analyzed for changes in contraction in the different conditions (amplitude of sarcomere shortening, peak height, maximum sarcomere departure velocity, maximum sarcomere return velocity, and decay time to 30% and 90% relaxation).
smiles,measurement,setting,value
"COc1ccc(-c2cc(=S)ss2)cc1 [ATT, 5-(4-methoxyphenyl)-3H-1,2-dithiole-3-thione]",production of TNF-α vs. LPS-activated condition,[1],−88%
same,TNF-α level in LPS-activated human macrophages,[2],−51.2%
same,production of IL-10,[3],−60.3%
same,5-HT concentration response curve and maximum efficacy in presence of ATT and CHAPS,"pulmonary arterial rings [4]; CHAPS 0.3%, compared with normal endothelium function, FIG. 2A",not significantly different
same,5-HT concentration response curve with L-NAME,"pulmonary arterial rings [4]; L-NAME 100 μM, FIG. 2B",markedly shifted
same,maximum effect of 5-HT with L-NAME,"pulmonary arterial rings [4]; L-NAME 100 μM, FIG. 2B",significantly reduced
same,"amplitude of relaxation, ATT vs. CHAPS+ATT","pulmonary arterial rings [5]; ATT 10 μM on 30 nM phenylephrine pre-constricted rings, FIG. 3",similar
same,effect of pre-treatment with L-NAME or CHAPS on the relaxation mediated by the substance,"pulmonary arterial rings [5]; ATT 10 μM on 30 nM phenylephrine pre-constricted rings, L-NAME 100 μM or CHAPS 0.3%, FIG. 3",failed 1 to affect
same,hyper-reactivity of the vessel induced by 5-HT after chronic hypoxia,[6],fully abolished
same,"loss of contractility (peak height, sarcomere shortening, maximum sarcomere departure velocity)",[7]; FIGS. 6A-C,prevent this loss of contractility
same,"loss of relaxation (maximum sarcomere return velocity, decay time to 90% and 30% relaxation)",[7]; FIGS. 6D-F,prevent the loss of relaxation
C[N+](C)(C)CCOC(N)=O.[Cl-] [carbamylcholine],relaxation under endothelium dysfunctions induced by L-NAME or CHAPS,"pulmonary arterial rings [5]; carbamylcholine 100 μM, Phe pre-constricted rings, data not shown",fully abolished
